Consider 20 compounds from patent publication US12162872B2, “Cycloalkylurea derivative” (Sumitomo Pharma Co., Ltd., priority 2019, dated 2024).

SMILES strings stand for the structures.

The target in the experiment is T1, Human orexin receptor type 2 (Homo sapiens, UniProt O43614).
T1 construct: expressed in transfected cells; host or cells: CHO cells (transient expression)
T1 sequence (O43614 1-444): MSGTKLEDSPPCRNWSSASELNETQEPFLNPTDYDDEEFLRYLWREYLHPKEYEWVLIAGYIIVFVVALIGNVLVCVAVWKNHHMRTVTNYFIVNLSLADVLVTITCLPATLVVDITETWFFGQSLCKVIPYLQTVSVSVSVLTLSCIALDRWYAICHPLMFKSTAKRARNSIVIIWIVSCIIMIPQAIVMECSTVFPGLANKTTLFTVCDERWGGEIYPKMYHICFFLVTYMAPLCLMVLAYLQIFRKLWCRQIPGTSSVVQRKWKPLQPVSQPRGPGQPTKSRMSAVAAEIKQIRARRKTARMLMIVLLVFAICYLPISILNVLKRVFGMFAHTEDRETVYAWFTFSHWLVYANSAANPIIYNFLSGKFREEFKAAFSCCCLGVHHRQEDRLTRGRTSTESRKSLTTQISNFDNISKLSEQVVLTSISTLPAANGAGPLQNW
In words: Test 2: Evaluation of agonist activity for orexin receptor type 2 (aequorin luminescence, intracellular calcium mobilization in CHO cells). Format: cell-based. Conditions: relative percentage of luminescence for the luminescence (100%) of Orexin A (100 pM); CHO cells transiently expressing human orexin receptor type 2 and apoaequorin; Orexin A Lot. 671009. The procedure:
Test 2: Evaluation of Agonist Activity for Orexin Receptor Type 2
Human orexin receptor type 2 and apoaequorin were transiently expressed in CHO cells, and the agonist activity was evaluated based on intracellular calcium mobilization with ligand stimulation. The CHO cells transiently-expressed human orexin receptor type 2 and apoaequorin were seeded on a 384-well plate by 2,000 cells/well, and then incubated for 16-22 hours. After the plate was returned to room temperature, Coelenterazine hcp (final concentration: 1 μM) was added to the plate, and the plate was allowed to stand at room temperature for 2 hours. And then, Orexin A (PEPTIDE INSTITUTE, INC., Lot. 671009) or each test compound was added to the plate, and the luminescence of the cells was measured with FDSS7000 (Hamamatsu Photonics K.K.), wherein Orexin A and each test compound were dissolved in DMSO (final concentration: 0.1%), and diluted with a buffer (Hanks, 20 mM HEPES, 0.1% BSA). The agonist activity of each test compound for orexin receptor type 2 was calculated as relative percentage of luminescence for the luminescence (100%) of Orexin A (100 pM).
In general terms: A change in cytosolic calcium serves as a functional read-out for many receptors and channels.
On to `CC(C)N1CCN([C@H]2CCC[C@@H](F)[C@@H]2NC(=O)N2CCC(C)(c3noc(C4CC4)n3)CC2)CC1` (racemic) [Example 139, rac-4-(5-cyclopropyl-1,2,4-oxadiazol-3-yl)-N-{(1R,2R,6S)-2-fluoro-6-[4-(propan-2-yl)piperazin-1-yl]cyclohexyl}-4-methylpiperidine-1-carboxamide], for which the “agonist activity (%)” value was determined as 351%. To `CC(C)N1CCN([C@H]2CCCCC[C@@H]2NC(=O)N2CCC(C)(c3noc(C4CC4)n3)CC2)CC1` (racemic) [Example 151, rac-4-(5-cyclopropyl-1,2,4-oxadiazol-3-yl)-4-methyl-N-{(1S,2S)-2-[4-(propan-2-yl)piperazin-1-yl]cycloheptyl}piperidine-1-carboxamide] belongs 368%; to `CC(C)N1CCN([C@@H]2CCCC(F)(F)[C@H]2NC(=O)N2CCC(C)(c3noc([C@H]4C[C@H]4F)n3)CC2)CC1` [Example 82, N-{(1S,6R)-2,2-difluoro-6-[4-(propan-2-yl)piperazin-1-yl]cyclohexyl}-4-{5-[(1R,2R)-2-fluorocyclopropyl]-1,2,4-oxadiazol-3-yl}-4-methylpiperidine-1-carboxamide], 69%.

With `CC(C)N1CCC(O[C@H]2CCCC(F)(F)[C@@H]2NC(=O)N2CCC(C)(c3noc([C@@H]4C[C@@H]4F)n3)CC2)CC1` [Example 83, N-[(1R,6S)-2,2-difluoro-6-{[1-(propan-2-yl)piperidin-4-yl]oxy}cyclohexyl]-4-{5-[(1S,2S)-2-fluorocyclopropyl]-1,2,4-oxadiazol-3-yl}-4-methylpiperidine-1-carboxamide], the “agonist activity (%)” value stood at 371%. To `CC(C)N1CCC(O[C@H]2CCCC(F)(F)[C@@H]2NC(=O)N2CCC(C)(c3noc(C4CC4)n3)CC2)CC1` [Example 84, 4-(5-cyclopropyl-1,2,4-oxadiazol-3-yl)-N-[(1R,6S)-2,2-difluoro-6-{[1-(propan-2-yl)piperidin-4-yl]oxy}cyclohexyl]-4-methylpiperidine-1-carboxamide] belongs 372%; to `CC(C)c1nc([C@H]2CCCC(F)(F)[C@@H]2NC(=O)N2CCC(C)(c3noc(C4CC4)n3)CC2)no1` [Example 85, 4-(5-cyclopropyl-1,2,4-oxadiazol-3-yl)-N-{(1R,6S)-2,2-difluoro-6-[5-(propan-2-yl)-1,2,4-oxadiazol-3-yl]cyclohexyl}-4-methylpiperidine-1-carboxamide], 360%; to `CC(C)c1nc([C@H]2CCCC(F)(F)[C@@H]2NC(=O)N2CCC(C)(c3noc([C@@H]4C[C@@H]4F)n3)CC2)no1` [Example 86, N-{(1R,6S)-2,2-difluoro-6-[5-(propan-2-yl)-1,2,4-oxadiazol-3-yl]cyclohexyl}-4-{5-[(1S,2S)-2-fluorocyclopropyl]-1,2,4-oxadiazol-3-yl}-4-methylpiperidine-1-carboxamide], 367%. Take `CC(C)c1nsc(O[C@H]2CCCC(F)(F)[C@@H]2NC(=O)N2CCC(C)(c3noc([C@@H]4C[C@@H]4F)n3)CC2)n1` [Example 87, N-[(1R,6S)-2,2-difluoro-6-{[3-(propan-2-yl)-1,2,4-thiadiazol-5-yl]oxy}cyclohexyl]-4-{5-[(1S,2S)-2-fluorocyclopropyl]-1,2,4-oxadiazol-3-yl}-4-methylpiperidine-1-carboxamide]: the “agonist activity (%)” value amounted to 226%. The value for `CC(C)n1cc(O[C@H]2CCCC(F)(F)[C@@H]2NC(=O)N2CCC(C)(c3noc([C@@H]4C[C@@H]4F)n3)CC2)cn1` [Example 88, N-[(1R,6S)-2,2-difluoro-6-{[1-(propan-2-yl)-1H-pyrazol-4-yl]oxy}cyclohexyl]-4-{5-[(1S,2S)-2-fluorocyclopropyl]-1,2,4-oxadiazol-3-yl}-4-methylpiperidine-1-carboxamide] was 201%; that for `CC(C)N1CC(O[C@H]2CCCC(F)(F)[C@@H]2NC(=O)N2CCC(C)(c3noc([C@@H]4C[C@@H]4F)n3)CC2)C1` [Example 89, N-[(1R,6S)-2,2-difluoro-6-{[1-(propan-2-yl)azetidin-3-yl]oxy}cyclohexyl]-4-{5-[(1S,2S)-2-fluorocyclopropyl]-1,2,4-oxadiazol-3-yl}-4-methylpiperidine-1-carboxamide] was 0%; that for `CC(C)n1cc(O[C@H]2CCCC(F)(F)[C@@H]2NC(=O)N2CCC(C)(c3noc(C4CC4)n3)CC2)cn1` [Example 90, 4-(5-cyclopropyl-1,2,4-oxadiazol-3-yl)-N-[(1R,6S)-2,2-difluoro-6-{[1-(propan-2-yl)-1H-pyrazol-4-yl]oxy}cyclohexyl]-4-methylpiperidine-1-carboxamide] was 112%. For `CC(C)N1CC[C@H](N(Cc2ccccc2)[C@H]2CCCC(F)(F)[C@@H]2NC(=O)N2CCC(C)(c3noc([C@@H]4C[C@@H]4F)n3)CC2)C1` [Example 91, N-[(1R,6S)-6-{benzyl[(3S)-1-(propan-2-yl)pyrrolidin-3-yl]amino}-2,2-difluorocyclohexyl]-4-{5-[(1S,2S)-2-fluorocyclopropyl]-1,2,4-oxadiazol-3-yl}-4-methylpiperidine-1-carboxamide], the “agonist activity (%)” value is 243%. As for `CC(C)c1nccc(O[C@H]2CCCC(F)(F)[C@@H]2NC(=O)N2CCC(C)(c3noc([C@@H]4C[C@@H]4F)n3)CC2)n1` [Example 92, N-[(1R,6S)-2,2-difluoro-6-{[2-(propan-2-yl)pyrimidin-4-yl]oxy}cyclohexyl]-4-{5-[(1S,2S)-2-fluorocyclopropyl]-1,2,4-oxadiazol-3-yl}-4-methylpiperidine-1-carboxamide], the “agonist activity (%)” value was 16%. For `CC(C)c1cn([C@H]2CCCC(F)(F)[C@@H]2NC(=O)N2CCC(C)(c3noc([C@@H]4C[C@@H]4F)n3)CC2)nn1` [Example 93, N-{(1R,6S)-2,2-difluoro-6-[4-(propan-2-yl)-1H-1,2,3-triazol-1-yl]cyclohexyl}-4-{5-[(1S,2S)-2-fluorocyclopropyl]-1,2,4-oxadiazol-3-yl}-4-methylpiperidine-1-carboxamide], the “agonist activity (%)” value is 365%.

For `CC(C)Cc1cn([C@H]2CCCC(F)(F)[C@@H]2NC(=O)N2CCC(C)(c3noc([C@@H]4C[C@@H]4F)n3)CC2)nn1` [Example 94, N-{(1R,6S)-2,2-difluoro-6-[4-(2-methylpropyl)-1H-1,2,3-triazol-1-yl]cyclohexyl}-4-{5-[(1S,2S)-2-fluorocyclopropyl]-1,2,4-oxadiazol-3-yl}-4-methylpiperidine-1-carboxamide], the “agonist activity (%)” value was found to be 382%. To `CC(C)N1CC[C@H](N(C)[C@H]2CCCC(F)(F)[C@@H]2NC(=O)N2CCC(C)(c3noc([C@@H]4C[C@@H]4F)n3)CC2)C1` [Example 95, N-[(1R,6S)-2,2-difluoro-6-{methyl[(3S)-1-(propan-2-yl)pyrrolidin-3-yl]amino}cyclohexyl]-4-{5-[(1S,2S)-2-fluorocyclopropyl]-1,2,4-oxadiazol-3-yl}-4-methylpiperidine-1-carboxamide] belongs 447%. To `CC(C)N(C)[C@H]1CCN([C@H]2CCCC(F)(F)[C@@H]2NC(=O)N2CCC(C)(c3noc([C@@H]4C[C@@H]4F)n3)CC2)C1` [Example 96, N-[(1R,6S)-2,2-difluoro-6-{(3S)-3-[methyl(propan-2-yl)amino]pyrrolidin-1-yl}cyclohexyl]-4-{5-[(1S,2S)-2-fluorocyclopropyl]-1,2,4-oxadiazol-3-yl}-4-methylpiperidine-1-carboxamide] belongs 493%. The value for `CC(C)N1CCN([C@H]2CCCC(F)(F)[C@@H]2NC(=O)N2CCC(C)(c3noc(C4CCC4)n3)CC2)CC1` [Example 97, 4-(5-cyclobutyl-1,2,4-oxadiazol-3-yl)-N-{(1R,6S)-2,2-difluoro-6-[4-(propan-2-yl)piperazin-1-yl]cyclohexyl}-4-methylpiperidine-1-carboxamide] was 486%; that for `CC(C)N1[C@@H]2CC[C@H]1C[C@H](O[C@H]1CCCC(F)(F)[C@@H]1NC(=O)N1CCC(C)(c3noc([C@@H]4C[C@@H]4F)n3)CC1)C2` [Example 98, N-[(1R,6S)-2,2-difluoro-6-{[(1R,3S,5S)-8-(propan-2-yl)-8-azabicyclo[3.2.1]octan-3-yl]oxy}cyclohexyl]-4-{5-[(1S,2S)-2-fluorocyclopropyl]-1,2,4-oxadiazol-3-yl}-4-methylpiperidine-1-carboxamide] was 271%; that for `CC(C)N(C)[C@H]1CCN([C@H]2CCCC(F)(F)[C@@H]2NC(=O)N2CCC(C)(c3noc(C4CC4)n3)CC2)C1` [Example 99, 4-(5-cyclopropyl-1,2,4-oxadiazol-3-yl)-N-[(1R,6S)-2,2-difluoro-6-{(3S)-3-[methyl(propan-2-yl)amino]pyrrolidin-1-yl}cyclohexyl]-4-methylpiperidine-1-carboxamide] was 499%.
